Results reported in ChEMBL document CHEMBL5385893, “Bestatin analogs-4-quinolinone hybrids as antileishmanial hits: Design, repurposing rational, synthesis, in vitro and in silico studies” (Eur J Med Chem, 2023).
The source made the active and inactive calls. No cut-off for these calls is given here.

Tests used:
[1] = test system: Leishmania donovani; assay: Antileishmanial activity against promastigotes-based model of Leishmania donovani MHOM/SD/62/1S-CL2D assessed as growth inhibition by measuring metabolism of resazurin to resorufin by aerobic respiration at 25 uM measured after 3 days relative to control; assay type: functional; conditions: for inhibition: time 3.0 day; for inhibition at 25 µM: 72 h, time 3 day
[2] = test system: Leishmania donovani; assay: Antileishmanial activity against promastigotes-based model of Leishmania donovani MHOM/SD/62/1S-CL2D assessed as growth inhibition by measuring metabolism of resazurin to resorufin by aerobic respiration at 50 uM measured after 3 days relative to control; assay type: functional; conditions: for inhibition: time 3.0 day; for inhibition at 50 µM: 72 h, time 3 day
[3] = Cytotoxicity against human THP-1 cells assessed as cell death by measuring metabolism of resazurin to resorufin measured after 3 days; assay type: toxicity, cell-based; conditions: time 3 day
[4] = Cytotoxicity against human HEK293T cells assessed as cell death by measuring metabolism of resazurin to resorufin measured after 3 days; assay type: toxicity, cell-based, HEK-293T; conditions: time 3 day

Row | SMILES | inhibition [1] | inhibition [2] | inhibition at 50 µM [2] [%] | CC50 at 72 h [3] [µM] | inhibition at 25 µM [1] [%] | CC50 at 72 h [4] [µM]
1 | CCNC(=O)C(=O)[C@H](Cc1ccccc1)NC(=O)c1[nH]c2ccccc2c(=O)c1C | inactive | inactive | – | – | – | –
2 | Cc1c(C(=O)N[C@@H](Cc2ccccc2)[C@@H](O)C(=O)NCCc2ccccc2)[nH]c2ccccc2c1=O | inactive | inactive | – | – | – | –
3 | COc1ccc(CCNC(=O)C(=O)[C@H](Cc2ccccc2)NC(=O)c2[nH]c3ccccc3c(=O)c2C)cc1 | inactive | – | 23 | – | – | –
4 | Cc1c(C(=O)N[C@@H](Cc2ccccc2)[C@@H](O)C(=O)NCc2ccccn2)[nH]c2ccccc2c1=O | inactive | – | 12 | – | – | –
5 | Cc1c(C(=O)N[C@@H](Cc2ccccc2)[C@@H](O)C(=O)NCc2ccc(F)cc2)[nH]c2ccccc2c1=O | inactive | – | 8 | – | – | –
6 | Cc1c(C(=O)N[C@@H](Cc2ccccc2)[C@@H](O)C(=O)NCc2ccccc2)[nH]c2ccccc2c1=O | – | – | 91 | 93 | 53 | > 200
7 | COc1ccc(CNC(=O)[C@H](O)[C@H](Cc2ccccc2)NC(=O)c2[nH]c3ccccc3c(=O)c2C)cc1OC | inactive | – | 23 | – | – | –
8 | Cc1c(C(=O)N[C@@H](Cc2ccccc2)C(=O)C(=O)NCCc2ccccn2)[nH]c2ccccc2c1=O | inactive | inactive | – | – | – | –
9 | COc1ccc(CNC(=O)C(=O)[C@H](Cc2ccccc2)NC(=O)c2[nH]c3ccccc3c(=O)c2C)cc1OC | inactive | – | 38 | – | – | –
10 | Cc1c(C(=O)N[C@@H](Cc2ccccc2)[C@@H](O)C(N)=O)[nH]c2ccccc2c1=O | – | – | 51 | > 200 | 17 | > 200
11 | Cc1c(C(=O)N[C@@H](Cc2ccccc2)C(=O)C(=O)NCc2ccccc2)[nH]c2ccccc2c1=O | – | – | 22 | – | 3 | –
12 | Cc1c(C(=O)N[C@@H](Cc2ccccc2)C(=O)C(=O)NCCc2ccccc2)nc2ccccc2c1O | – | – | 50 | > 200 | 38 | 107
13 | CCNC(=O)[C@H](O)[C@H](Cc1ccccc1)NC(=O)c1[nH]c2ccccc2c(=O)c1C | inactive | – | 1 | – | – | –
14 | Cc1c(C(=O)N[C@@H](Cc2ccccc2)[C@@H](O)C(=O)NC(C)C)[nH]c2ccccc2c1=O | inactive | – | 4 | – | – | –
15 | COc1ccc(CCNC(=O)[C@H](O)[C@H](Cc2ccccc2)NC(=O)c2[nH]c3ccccc3c(=O)c2C)cc1 | inactive | – | 13 | – | – | –
16 | Cc1c(C(=O)N[C@@H](Cc2ccccc2)C(=O)C(=O)NCc2ccccn2)[nH]c2ccccc2c1=O | inactive | inactive | – | – | – | –
17 | Cc1c(C(=O)N[C@@H](Cc2ccccc2)C(=O)C(=O)NCc2ccc(F)cc2)[nH]c2ccccc2c1=O | inactive | inactive | – | – | – | –
18 | CNC(=O)C(=O)[C@H](Cc1ccccc1)NC(=O)c1[nH]c2ccccc2c(=O)c1C | inactive | inactive | – | – | – | –
19 | Cc1c(C(=O)N[C@@H](Cc2ccccc2)[C@@H](O)C(=O)NCCc2ccccn2)[nH]c2ccccc2c1=O | – | – | 31 | – | 8 | –
20 | COc1ccc(CNC(=O)C(=O)[C@H](Cc2ccccc2)NC(=O)c2[nH]c3ccccc3c(=O)c2C)cc1 | inactive | – | 9 | – | – | –
21 | Cc1c(C(=O)N[C@@H](Cc2ccccc2)C(=O)C(N)=O)[nH]c2ccccc2c1=O | inactive | inactive | – | – | – | –
22 | CNC(=O)[C@H](O)[C@H](Cc1ccccc1)NC(=O)c1[nH]c2ccccc2c(=O)c1C | – | – | 22 | – | 1 | –
23 | CCCCCCCC/C=C\CCCCCCCCCCCCOP(=O)([O-])OCCC[N+](C)(C)C | – | – | 108 | 2 | 106 | 28
24 | Cc1c(C(=O)N[C@@H](Cc2ccccc2)C(=O)C(=O)NC(C)C)[nH]c2ccccc2c1=O | inactive | inactive | – | – | – | –
25 | COc1ccc(CNC(=O)[C@H](O)[C@H](Cc2ccccc2)NC(=O)c2[nH]c3ccccc3c(=O)c2C)cc1 | inactive | – | 16 | – | – | –
